For experiment [1], the system named is obese Zucker rats. The experiment can be described thus: Serum triglycerides, cholesterol and free fatty acids after 7 day sc infusion. Type of experiment: in vivo, rat. As to conditions: 50 and 500 nmole/kg/day sc infusion. The protocol:
(§1) The dosage forms were prepared prior to the start of the experiment and used to fill the pumps under sterile conditions. Pumps were primed overnight at 37° C. in sterile saline and implanted on the starting day of the experiment.
(§2) Three groups of eight obese male Zucker rats (350-400 g) were housed in individual cages and maintained under 12:12 hour light:dark conditions with both food (Harlan Teklad Sterilized Rodent Diet LM-485) and water available ad libitum.
(§3) On the morning of day 1, the rats were anesthetized using chlorohydrate anesthetic and implanted with a sub-cutaneous infusion pump (Alzet® 2002) just under the skin. […] Individual body weight and food and water consumption were measured daily at 0800 hours for 7 days.
(§4) On day 7 a right atrial cannula was implanted in the jugular vein under cholorohydrate anesthesia. The animals were fasted overnight and an intravenous (iv) glucose tolerance test was performed. Glucose (1 g/kg) was injected at time 0 and blood samples were taken via the cannula at 0, 2.5, 5, 10, 20 and 40 minutes post-injection. Plasma was collected and assayed for glucose (Glucose (Trinder) Assay; Diagnostic Chemicals Limited, Charlottetown, P.E.I., Canada; Cat #220-32) and insulin (Mercodia Rat Insulin ELISA; Mercodia, Uppsala, Sweden; ALPCO 10-1124-10) content. At the conclusion of the glucose tolerance test and additional serum samples were collected and assayed for triglycerides (Triglyceride L-Type TG H kit: Wako Diagnostics, Richmond, Va.), cholesterol (Cholesterol E assay kit: Wako Diagnostics, Richmond, Va.) and free fatty acids (Fatty Acid HR series NEFA-HR2 kit: Wako Diagnostics, Richmond, Va.).

Experiment [2] concerns obese Zucker rats. The experiment can be described thus: Intravenous glucose tolerance test after 7 day sc infusion. Type of experiment: in vivo, rat. The protocol:
as §1, §2, §3, §4

The target of experiment [3] is T1, hMC5-R (Homo sapiens, UniProt P33032).
T1 construct: expressed in transfected cells; host or cells: CHO-K1
T1 sequence (P33032 whole entry): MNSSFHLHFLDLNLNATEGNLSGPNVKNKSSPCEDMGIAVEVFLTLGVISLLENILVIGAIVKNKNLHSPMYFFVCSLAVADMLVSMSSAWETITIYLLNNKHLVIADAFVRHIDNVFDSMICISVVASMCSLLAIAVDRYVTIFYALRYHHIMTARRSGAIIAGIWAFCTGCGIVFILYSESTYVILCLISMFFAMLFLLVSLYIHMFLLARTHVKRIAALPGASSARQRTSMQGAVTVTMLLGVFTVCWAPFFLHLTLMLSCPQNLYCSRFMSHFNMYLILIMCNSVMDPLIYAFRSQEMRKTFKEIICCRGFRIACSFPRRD
In words: Radioligand binding assay, [125I]-NDP-α-MSH competition, CHO-K1 membranes. The settings on record: Table 5.

Experiment [4] deals with obese Zucker rats. The experiment can be described thus: Body weight and food intake, 7 day sc infusion. Type of experiment: in vivo, rat. As to conditions: for decrease in body weight gain: day 7, vs vehicle; for decrease in food intake: end of 7 day treatment. On the procedure:
as §1
The Zucker rats are obese due to a spontaneous mutation in the […].
as §2, §3

Experiment [5] concerns the target T1, hMC5-R. The experiment can be described thus: cyclic AMP bioassay (ECL) in CHO-K1 cells. Type of experiment: cell-based.
Experiment [6] deals with T2, hMC1-R (Homo sapiens, UniProt Q01726).
T2 construct: expressed in transfected cells; host or cells: CHO-K1
T2 sequence (Q01726 whole entry): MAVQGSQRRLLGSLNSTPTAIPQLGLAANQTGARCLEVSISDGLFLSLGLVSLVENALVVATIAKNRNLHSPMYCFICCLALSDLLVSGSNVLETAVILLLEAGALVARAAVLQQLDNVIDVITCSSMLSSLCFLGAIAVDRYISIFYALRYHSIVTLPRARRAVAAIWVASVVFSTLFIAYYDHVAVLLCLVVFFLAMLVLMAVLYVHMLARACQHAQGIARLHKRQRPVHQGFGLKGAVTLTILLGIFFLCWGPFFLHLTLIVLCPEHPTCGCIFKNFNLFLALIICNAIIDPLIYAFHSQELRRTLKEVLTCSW
The experiment can be described thus: cyclic AMP bioassay (ECL) in CHO-K1 cells. Type of experiment: cell-based. The settings on record: Table 9A/9B; read-out: EC50 hMC1-R.
Protocol: (§5) Intracellular cyclic AMP (cAMP) levels were determined by an electrochemiluminescence (ECL) assay (Meso Scale Discovery®, Gaithersburg, Md.; referred to hereinafter as MSD). […] Transgenic CHO-K1 cells stably expressing hMC receptor subtypes 1, 3, 4 or 5 were dispensed at a density of approximately 7,000 cells/well in 384-well Multi-Array®plates (MSD) containing integrated carbon electrodes and coated with anti-cAMP antibody. Increasing concentrations of the test compounds were added and the cells were incubated for approximately 40 minutes at approximately 37° C. […] At the end of the second incubation period read buffer (Tris-buffered solution containing an ECL co-reactant and Triton X-100 at ph 7.8) was added and the cAMP levels in the cell lysates were immediately determined by ECL detection with a Sector Imager 6000 Reader® (MSD). Data were analyzed using a computer-assisted non-linear regression analysis (XL fit; IDBS) and reported as either an EC50 value or a Kb value.
(§6) The Kb value reflects the potency of an antagonist and is determined by Schild analysis. In brief, concentration-response curves of an agonist are carried out in the presence of increasing concentrations of an antagonist. […] It is calculated by extrapolating the line on a Schild plot to zero on the y-axis.

The target in experiment [7] is T3, hMC3-R (Homo sapiens, UniProt P41968).
T3 construct: expressed in transfected cells; host or cells: CHO-K1
T3 sequence (P41968 whole entry): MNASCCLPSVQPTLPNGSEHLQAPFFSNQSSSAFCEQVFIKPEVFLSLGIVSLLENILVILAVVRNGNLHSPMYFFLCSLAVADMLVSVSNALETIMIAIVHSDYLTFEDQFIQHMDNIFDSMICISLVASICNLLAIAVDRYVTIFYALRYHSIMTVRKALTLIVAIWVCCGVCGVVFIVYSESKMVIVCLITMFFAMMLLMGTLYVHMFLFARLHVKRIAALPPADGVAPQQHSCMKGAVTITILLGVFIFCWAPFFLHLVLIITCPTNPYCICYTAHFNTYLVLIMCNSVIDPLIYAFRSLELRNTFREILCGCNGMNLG
The experiment can be described thus: cyclic AMP bioassay (ECL) in CHO-K1 cells. Type of experiment: cell-based. The settings on record: Table 9A/9B; read-out: EC50 hMC3-R.

Experiment [8] has as its target T4, hMC4-R (Homo sapiens, UniProt P32245).
T4 construct: expressed in transfected cells; host or cells: CHO-K1
The experiment can be described thus: cyclic AMP bioassay (ECL) in CHO-K1 cells. Type of experiment: cell-based. As to conditions: Table 9A/9B; read-out: EC50 hMC4-R.
Protocol: as §5, §6

The target in experiment [9] is T4, hMC4-R. The experiment can be described thus: Radioligand binding assay, [125I]-NDP-α-MSH competition, CHO-K1 membranes. As to conditions: Table 5; read-out: Ki KMC4-R.
Experiment [10] concerns the target T2, hMC1-R. Described as above. The settings on record: Table 5; read-out: Ki hMC1-R.
Experiment [11] addresses T3, hMC3-R. The experiment is described as above. The settings on record: Table 5; read-out: Ki hMC3-R.
[12] abbreviates: Table 9A/9B, read-out: EC50 hMC5-R.

The structures appear in SMILES notation. Entries after “also recorded” stand apart in the source; their conditions may differ. Where two headings read alike, the source gives them in different places. Bridge positions count the residues as written; N and C are the ends. Square brackets hold non-standard residues; d marks the D form. Peptide text beside a SMILES is read from it. Bip = N[C@@H](Cc1ccc(-c2ccccc2)cc1)C(=O)O; hArg = N=C(N)NCCCC[C@H](N)C(=O)O; βAla = NCCC(=O)O

Experimental findings from patent US20120135923A1, “Use of Melanocortins to Treat Dyslipidemia” (IPSEN PHARMA, S.A.S., priority 2009, published 2012) are described below.

T4 sequence (P32245 whole entry): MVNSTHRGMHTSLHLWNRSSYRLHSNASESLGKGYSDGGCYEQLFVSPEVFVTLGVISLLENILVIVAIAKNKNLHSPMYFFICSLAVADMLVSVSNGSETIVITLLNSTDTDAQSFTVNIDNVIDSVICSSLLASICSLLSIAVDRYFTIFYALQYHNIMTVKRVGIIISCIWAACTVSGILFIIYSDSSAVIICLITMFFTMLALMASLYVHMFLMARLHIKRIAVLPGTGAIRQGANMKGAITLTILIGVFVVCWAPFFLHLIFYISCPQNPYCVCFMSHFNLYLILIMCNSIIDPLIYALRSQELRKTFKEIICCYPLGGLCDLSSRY

Regarding `CC(=O)N[C@@H](CCCNC(=N)N)C(=O)N[C@H]1CSSC[C@@H](C(N)=O)NC(=O)[C@H](Cc2c[nH]c3ccccc23)NC(=O)[C@H](CCCNC(=N)N)NC(=O)[C@@H](Cc2ccccc2)NC(=O)[C@H](Cc2c[nH]cn2)NC(=O)[C@@H](C)NC1=O` [Compound A, Ac-Arg-c(Cys-D-Ala-His-D-Phe-Arg-Trp-Cys)-NH2], in experiment [1], the serum cholesterol result was “Dose-related decrease”, the “serum free fatty acids” value is recorded as “dose-related decreases; also recorded: Decrease” and the serum triglycerides result is given as “Dose-related decrease”. Further, the “basal fasted plasma glucose” value in [2] (500 nmole/kg/day sc infusion, fasted overnight) is recorded as “decreased”. Besides, the “plasma glucose levels after a glucose challenge” value in experiment [2] (50 and 500 nmole/kg/day, glucose 1 g/kg iv) is recorded as “decreased”. Further, in experiment [2] (7 day infusion, glucose tolerance test), the “amount of insulin required to clear the glucose challenge” value is “decreased”. Moreover, the inhibition constant (Ki) in experiment [3] (Ki hMC5-R) amounted to 430 nM. In experiment [4] (50 nmole/kg/day sc infusion), the “decrease in body weight gain” value came out at 35 g and the “decrease in food intake” value is 60 g. For the same compound, in experiment [4] (500 nmole/kg/day sc infusion), the “decrease in body weight gain” value came to 60 g and the “decrease in food intake” value amounted to 100 g. Also, the EC50 in experiment [5] was 1630 nM.

`CCOc1ccc(C[C@H]2NC(=O)[C@H](Cc3c[nH]cn3)NC(=O)[C@@H](NC(=O)[C@H](N)Cc3ccccc3)CSSC[C@H](C(=O)N[C@H](C(N)=O)[C@@H](C)O)NC(=O)CCNC(=O)[C@H](Cc3ccc(-c4ccccc4)cc3)NC(=O)[C@H](CCCCNC(=N)N)NC2=O)cc1` [D-Phe-c(Cys-His-D-(Et)Tyr-hArg-Bip-β-Ala-D-Cys)-Thr-NH2] (H-[dF]CH[dY](Et)[hArg][Bip][βAla][dC]T-NH2; disulfide 2-8): the 50% effective concentration (EC50) in experiment [6] amounted to 0.685 nM; in experiment [7], 81.8 nM; in experiment [8] it was 86.9 nM; in experiment [5] (setting [12]) it was 31.8 nM. For the same compound, the inhibition constant Ki turned out to be 38 nM in [3] (read-out: Ki hMC5-R), 36.9 nM in experiment [9], 0.128 nM in [10] and 85.6 nM in [11].

Consider `CCOc1ccc(C[C@H]2NC(=O)[C@H](Cc3c[nH]cn3)NC(=O)[C@@H](NC(=O)[C@H](N)Cc3ccccc3)CSSC[C@H](C(=O)N[C@H](C(N)=O)[C@@H](C)O)NC(=O)CCNC(=O)[C@H](Cc3c[nH]c4ccccc34)NC(=O)[C@H](CCCCNC(=N)N)NC2=O)cc1` [D-Phe-c(Cys-His-D-(Et)Tyr-hArg-Trp-β-Ala-D-Cys)-Thr-NH2] (H-[dF]CH[dY](Et)[hArg]W[βAla][dC]T-NH2; disulfide 2-8), for which the EC50 in experiment [6] was found to be 0.345 nM; in [7] it was 2.71 nM; in experiment [8] it was 5.38 nM; in [5] (setting [12]), 2.38 nM. The inhibition constant (Ki) came out at 9.27 nM in experiment [3] (read-out: Ki hMC5-R), 14.7 nM in experiment [9], 0.0567 nM in experiment [10] and 31.4 nM in experiment [11].

By Ki is commonly meant a measure of affinity in units of concentration, obtained from inhibition or displacement. For orientation: EC50 means the concentration at which the effect is half-maximal.
